In one experiment the target is T1, Human secretory PLA2 (Homo sapiens, UniProt P14555).
T1 sequence (P14555 21-144): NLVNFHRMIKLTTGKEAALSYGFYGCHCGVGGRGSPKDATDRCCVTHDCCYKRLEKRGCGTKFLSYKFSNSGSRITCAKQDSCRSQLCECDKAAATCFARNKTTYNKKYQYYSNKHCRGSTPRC
In words: Secretory PLA2 inhibitory activity (diheptanoyl thio PC substrate, absorbance at 405 nm). As to conditions: diheptanoyl thio PC 1 mM, Triton X100 0.3 mM, pH 7.3, CaCl2 10 mM, 30 minutes, read-out: s-PLA2 Inhibition IC50. In kind it is biochemical. Here is the method: Secretory PLA2 activity was assayed according to the method described in Penynolds L. J., Hughes L. L., Dennis E. A. et al. Anal. Biochem. 201,190-197 (1992).
Diheptanoyl thiophosphatidylcholine which was prepared according to the procedure described in the literature was used as a substrate. Human secretory PLA2 was used as an enzyme. The diheptanoyl thio PC (1 mM) was reacted with the human secretory PLA2 in the presence of Triton X100 (0.3 mM) and 5,5'-dithiobis-(2-nitrobenzoic acid) (125 μM) in Tris buffer (25 mM, pH 7.3), CaCl2 (10 mM), KCI (100 mM), bovine serum albumin (1.0 mg/ml), and then the change in absorbance at 405 nm at the time of 30 minutes after the reaction was assayed.
Inhibitory activity (%) was estimated by the formula: [(the change in absorbance with the inhibitor and PLA2 ·the change in absorbance with the inhibitor and without PLA2)/(the change in absorbance without the inhibitor and with PLA2 ·the change in absorbance without the inhibitor and PLA2)]×100.
IC50 value (μM) was calculated from graph showing inhibitory values on the vertical axis and log of concentrations of the inhibitor on the horizontal axis.

The target in experiment [1] is T2, intracellular PLA2 (cytosolic PLA2, cPLA2) (Homo sapiens, UniProt P47712).
T2 sequence (P47712 1-749): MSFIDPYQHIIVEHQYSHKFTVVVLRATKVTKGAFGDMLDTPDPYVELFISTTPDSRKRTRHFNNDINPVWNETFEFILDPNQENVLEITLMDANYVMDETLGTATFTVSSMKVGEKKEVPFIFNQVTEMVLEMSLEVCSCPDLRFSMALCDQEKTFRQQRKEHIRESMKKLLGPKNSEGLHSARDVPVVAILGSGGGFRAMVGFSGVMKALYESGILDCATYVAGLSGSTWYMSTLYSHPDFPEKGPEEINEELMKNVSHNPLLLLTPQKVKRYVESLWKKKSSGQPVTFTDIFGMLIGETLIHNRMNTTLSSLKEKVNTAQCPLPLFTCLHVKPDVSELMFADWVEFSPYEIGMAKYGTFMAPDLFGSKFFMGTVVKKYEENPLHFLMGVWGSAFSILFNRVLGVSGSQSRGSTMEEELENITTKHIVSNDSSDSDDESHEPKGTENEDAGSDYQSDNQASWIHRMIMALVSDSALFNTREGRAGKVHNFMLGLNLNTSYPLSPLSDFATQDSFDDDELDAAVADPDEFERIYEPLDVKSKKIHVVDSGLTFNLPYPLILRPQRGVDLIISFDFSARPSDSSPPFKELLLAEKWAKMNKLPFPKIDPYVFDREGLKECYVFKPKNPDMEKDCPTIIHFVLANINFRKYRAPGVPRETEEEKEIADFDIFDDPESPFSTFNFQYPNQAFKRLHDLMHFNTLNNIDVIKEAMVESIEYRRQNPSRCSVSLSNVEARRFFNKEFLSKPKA
Put plainly: Intracellular PLA2 (cPLA2) inhibitory activity (14C-arachidonyl phosphatidylcholine substrate). Type of experiment: biochemical. As to conditions: 2 μM radiolabelled phosphatidylcholine, 1 μM dioleoylglycerol, 1 mM CaCl2, pH 7.4; read-out: c-PLA2 Inhibition IC50. The protocol:
cPLA2 activity was assayed according to the method described in R. M. Kramer, E. F. Roberts, J. Manetta and J. E. Putnam, J. Biol. Chem., 268 (8), 5268-5272 (1991). Briefly, intracellular PLA2 activity was assayed using supersonic treated […] which contain 1-palmitoyl-2-[^14 C]arachidonyl-sn-glycero-3-phosphocholine and sn-1, 2-dioleoylglycerol at a molar ratio of 2:1. This test mixture contained 1 mM CaCl2, 2 mM dithiothreitol, 150 mM NaCl, 50 mM Hepes, pH 7.4 and 0.1 mg/ml BSA. A substrate is a 2 μM radioisotope labelled phosphatidylcholine ribosome containing 1 μM dioleoylglycerol. IC50 value is calculating in the same manner as in calculating it for secretory PLA2 inhibitory activity.

`COc1c(C)c(OCCCOc2ccc3ccccc3c2)c(C)c(C)c1C(=O)O` [Example 18, 2-Methoxy-3,5,6-trimethyl-4-[3-(2-naphthyloxy)-propyloxy]benzoic acid]: the values for the IC50 (on Human secretory PLA2; in experiment [1]) were more than 50 µM and 19 µM, respectively.

With `COc1c(C)c(OC(=O)c2c(C)c(C)c(OCc3ccc(F)cc3)c(C)c2OC)c(C)c(C)c1C(=O)O` [Example 8, 4-[4-(4-Fluorobenzyloxy)-2-methoxy-3,5,6-trimethylphenylcarboxy]-2-methoxy-3,5,6-trimethylbenzoic acid], the 50% inhibitory concentration (IC50) (in general, the midpoint of a concentration-inhibition curve) on Human secretory PLA2 came out at 22 µM; in experiment [1], 31 µM.

As to `COc1c(C)c(OC(=O)c2c(C)c(C)c(OCCCCCCOc3ccc(F)cc3)c(C)c2OC)c(C)c(C)c1C(=O)O` [Example 4, 4-[4-[6-(4-Fluorophenoxy)hexyloxy]-2-methoxy-3,5,6-trimethylphenylcarboxy]-2-methoxy-3,5,6-trimethylbenzoic acid], the results for the IC50 (on Human secretory PLA2; in experiment [1]) were 27 µM and 7.4 µM, respectively.

In the case of `COC(=O)c1ccc(OCCCOc2c(C)c(C)c(C(=O)Oc3c(C)c(C)c(C(N)=O)c(OC)c3C)c(OC)c2C)cc1` [Example 46, 4-{4-[3-(4-Methoxycarbonylphenoxy)propoxy]-2methoxy-3,5,6-trimethylbenzoyloxy}-2-methoxy-3,5,6 trimethylbenzamide], the IC50 on Human secretory PLA2 is 0.74 µM; in experiment [1], more than 50 µM.

For the compound `COc1c(C)c(OC(=O)c2c(C)c(C)c(OCCCN3CCC(=C(c4ccccc4)c4ccccc4)CC3)c(C)c2OC)c(C)c(C)c1C(=O)O` [Example 66, 4-{4-[3-(4-Benzhydrylidenepiperidin-1-yl)-propoxy]-2-methoxy-3,5,6-trimethylbenzoyloxy}-2-methoxy-3,5,6-trimethylbenzoic Acid], the IC50 at Human secretory PLA2 came to 18 µM; in experiment [1], 6.8 µM.

In the case of `COc1c(C)c(OC(=O)c2c(C)c(C)c(OCCC(C)CCCC(C)C)c(C)c2OC)c(C)c(C)c1C(=O)O` (centres unmarked) [Example 50, 4-[4-(3,7-Dimethyloctyloxy)-2-methoxy-3,5,6-trimethylbenzoyloxy]-2-methoxy-3,5,6-trimethylbenzoic Acid], the IC50 on Human secretory PLA2 is 50 µM; in experiment [1], 3 µM.

Consider `COc1c(C)c(OC(=O)c2c(C)c(C)c(OCCCN(S(C)(=O)=O)S(=O)(=O)c3ccc(F)cc3)c(C)c2OC)c(C)c(C)c1C(=O)O` [Example 57, 4-{4-[3-Methylsulfonyl-(4-fluorophenyl)sulfonylaminopropoxy]-2-methoxy-3,5,6-trimethylbenzoyloxy}-2-methoxy-3,5,6-trimethylbenzoic Acid], for which the IC50 on Human secretory PLA2 was determined as 5.7 µM; in experiment [1] it was 16 µM.

Take `COc1c(C)c(OC(=O)c2c(C)c(C)c(OCCCOc3ccc(Br)cc3Br)c(C)c2OC)c(C)c(C)c1C(=O)O` [Example 26, 4-{4-[3-(2,4-Dibromophenoxy)propoxy]-2-methoxy-3,5,6-trimethylbenzoyloxy}-2-methoxy-3,5,6-trimethylbenzoic Acid]: the IC50 at Human secretory PLA2 was found to be 15 µM; in experiment [1], 2.6 µM.

For `COc1c(C)c(OC(=O)c2c(C)c(C)c(OCCCN(Cc3ccccc3)Cc3ccccc3)c(C)c2OC)c(C)c(C)c1C(=O)O` [Example 63, 4-{4-[3-(bis-Benzylamino)propoxy]-2-methoxy-3,5,6-trimethylbenzoyloxy}-2-methoxy-3,5,6-trimethylbenzoic Acid], the results for the IC50 (on Human secretory PLA2; in experiment [1]) were 12 µM and 2.5 µM, respectively.

Consider `COc1c(C)c(OC(=O)c2c(C)c(C)c(OCCCN(C(=O)OC(C)(C)C)S(C)(=O)=O)c(C)c2OC)c(C)c(C)c1C(=O)O` [Example 59, 4-[4-(3-t-Butoxycarbonylmethylsulfonylaminopropoxy)-2-methoxy-3,5,6-trimethylbenzoyloxy]-2-methoxy-3,5,6-trimethylbenzoic Acid], for which the IC50 on Human secretory PLA2 is 11 µM; in experiment [1], more than 50 µM.

With `COc1c(C)c(OC(=O)c2c(C)c(C)c(OCCCSc3ccc(F)cc3)c(C)c2OC)c(C)c(C)c1C(=O)O` [Example 10, 4-[4-[3-(4-Fluorophenylthio)propyloxy]-2-methoxy-3,5,6-trimethylphenylcarboxy]-2-methoxy-3,5,6-trimethylbenzoic acid], the IC50 (on Human secretory PLA2; in experiment [1]) was 13 µM each time.

For `COc1c(C)c(OC(=O)c2c(C)c(C)c(OCCCNS(=O)(=O)c3ccccc3)c(C)c2OC)c(C)c(C)c1C(=O)O` [Example 54, 4-{4-[(3-Phenylsulfonylamino)propoxy]-2-methoxy-3,5,6-trimethylbenzoyloxy}-2-methoxy-3,5,6-trimethylbenzoic Acid], the concentration for half-maximal inhibition (IC50) was 17 µM at Human secretory PLA2 and more than 50 µM in experiment [1].

Take `COc1c(C)c(OC(=O)c2c(C)c(C)c(OCCCCCCOc3ccc(C(F)(F)F)cc3)c(C)c2OC)c(C)c(C)c1C(=O)O` [Example 3, 4-[4-[6-(4-Trifluoromethylphenoxy)hexyloxy]-2-methoxy-3,5,6-trimethylphenylcarboxy]-2-methoxy-3,5,6-trimethylbenzoic acid]: the values for the IC50 (at Human secretory PLA2; in experiment [1]) were 32 µM and 3 µM, respectively.

Turning to `COc1c(C)c(OC(=O)c2c(C)c(C)c(OCCCOc3ccc(C(=O)O)cc3)c(C)c2OC)c(C)c(C)c1C(=O)O` [Example 32, 4-{4-[3-(4-Carboxyphenoxy)propoxy]-2-methoxy-3,5,6-trimethylbenzoyloxy}-2-methoxy-3,5,6-trimethylbenzoic Acid], the IC50 at Human secretory PLA2 was found to be 10 µM; in experiment [1], 38 µM.

Consider `COc1c(C)c(OC(=O)c2c(C)c(C)c(OCCC3=CCC4CC3C4(C)C)c(C)c2OC)c(C)c(C)c1C(=O)O` (single isomer, unassigned) [Example 49, 4-{4-[2-(6,6-Dimetheylbicyclo[3.1.1]hept-2-en-2-yl)ethoxy]-2-methoxy-3,5,6-trimethylbenzoyloxy}-2-methoxy-3,5,6-trimethylbenzoic Acid], for which the figures for the IC50 (on Human secretory PLA2; in experiment [1]) were 44 µM and 4.1 µM, respectively.

Turning to `COc1c(C)c(OC(=O)c2c(C)c(C)c(OCCCN(S(=O)(=O)c3ccc(F)cc3)S(=O)(=O)c3ccc(F)cc3)c(C)c2OC)c(C)c(C)c1C(=O)O` [Example 55, 4-{4-[3-bis(4-Fluorophenyl)sulfonylaminopropoxy]-2-methoxy-3,5,6-trimethylbenzoyloxy}-2-methoxy-3,5,6-trimethylbenzoic Acid], the IC50 at Human secretory PLA2 worked out at 6.8 µM; in experiment [1] it was 6.3 µM.

Consider `COc1c(C)c(OC(=O)c2c(C)c(C)c(OCCCN(C)S(=O)(=O)c3ccccc3)c(C)c2OC)c(C)c(C)c1C(=O)O` [Example 53], for which the results for the IC50 (on Human secretory PLA2; in experiment [1]) were 6 µM and 20 µM, respectively.

As for `COc1c(C)c(OC(=O)c2c(C)c(C)c(OCCCOc3cc4c(cc3C(c3ccccc3)c3ccccc3)OCO4)c(C)c2OC)c(C)c(C)c1C(=O)O` [Example 27, 4-{4-[3-(6-Benzhydrylbenzo[1, 3]dioxol-5-yloxy)-propoxy]-2-methoxy-3,5,6-trimethylbenzoyloxy}-2-methoxy-3,5,6-trimethylbenzoic Acid], the IC50 on Human secretory PLA2 is 13 µM; in experiment [1], 1.5 µM.

Take `CCc1ccc(OCCCOc2c(C)c(C)c(C(=O)Oc3c(C)c(C)c(C(=O)O)c(OC)c3C)c(OC)c2C)cc1` [Example 30, 4-{4-[3-(4-Ethylphenoxy)propoxy]-2-methoxy-3,5,6-trimethylbenzoyloxy}-2-methoxy-3,5,6-trimethylbenzoic Acid]: the IC50 at Human secretory PLA2 stood at 16 µM; in experiment [1] it was 5.4 µM.

Values taken from patent publication US5534533A, “Carboxylate derivatives exhibiting phospholipase A2 inhibitory activity” (Shionogi & Co., Ltd., priority 1993, dated 1996).
